Fold change (FC) data for 1 compound are collected here from ChEMBL document CHEMBL5576045, “M1/M4 receptors as potential therapeutic treatments for schizophrenia: A comprehensive study” (Bioorg Med Chem, 2024).

The target in the test is T1, Muscarinic acetylcholine receptor M4 (Homo sapiens) (UniProt P08173).
T1 sequence (whole entry): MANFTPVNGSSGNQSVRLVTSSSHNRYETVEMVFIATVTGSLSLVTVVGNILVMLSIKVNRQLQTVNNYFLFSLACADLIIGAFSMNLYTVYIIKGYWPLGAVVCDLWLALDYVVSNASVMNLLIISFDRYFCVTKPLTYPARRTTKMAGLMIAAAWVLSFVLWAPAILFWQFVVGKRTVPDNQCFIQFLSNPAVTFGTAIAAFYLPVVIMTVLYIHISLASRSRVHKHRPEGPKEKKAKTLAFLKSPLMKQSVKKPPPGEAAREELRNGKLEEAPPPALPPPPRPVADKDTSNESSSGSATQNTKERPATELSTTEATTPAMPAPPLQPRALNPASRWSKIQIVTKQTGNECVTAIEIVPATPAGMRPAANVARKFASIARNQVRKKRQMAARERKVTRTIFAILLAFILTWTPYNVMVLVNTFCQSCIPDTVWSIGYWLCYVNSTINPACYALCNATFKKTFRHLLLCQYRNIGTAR
Briefly: Binding affinity to M4 receptor (unknown origin) assessed as fold change in presence of acetylcholine.

As to `CC1=C(CCO)SC2=Nc3nc(C)ncc3CN21`, the fold change (FC) stood at 3.
